# From the supplement of paper PMC10307832
# Experiments:
# Test in all cases: relative viability (nuclei count vs DMSO), 5 days (fraction); higher = more cells survive
# [1] = compound: O=S(=O)(c1ccccc1)N(CC(F)(F)F)c1ccc(C(O)(C(F)(F)F)C(F)(F)F)cc1 + COc1cccc2cc(-c3nc([C@H]4CC[C@H](C(=O)O)CC4)n4ncnc(N)c34)[nH]c12 [OSI-027] (partner 0.5 µM)
# In short: (§1)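 Each reported value is a median over duplicate plates. It expresses relative viability: treated-well nuclei count divided by vehicle-well nuclei count. Lung cancer cell lines in 1536-well plates were dosed by pin tool a day after seeding, alone with one drug or with a fixed anchor-drug dose plus five library-drug doses (not always all listed) in √10 steps, and nuclei were counted after 5 days.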
# RO-3306 + Luminespib = compound: C1=CC2=C(C=CC(=C2)C=C3C(=O)NC(=NCC4=CC=CS4)S3)N=C1 [RO-3306] + CCNC(=O)c1noc(-c2cc(C(C)C)c(O)cc2O)c1-c1ccc(CN2CCOCC2)cc1 [Luminespib] (partner 0.01 µM)
# In short: as §1
# RO-3306 + Phenformin = compound: C1=CC2=C(C=CC(=C2)C=C3C(=O)NC(=NCC4=CC=CS4)S3)N=C1 [RO-3306] + N=C(N)NC(=N)NCCc1ccccc1 [Phenformin] (partner 250 µM)
# In short: as §1
# [2] = compound: O=S(=O)(c1ccccc1)N(CC(F)(F)F)c1ccc(C(O)(C(F)(F)F)C(F)(F)F)cc1 + N=C(N)NC(=N)NCCc1ccccc1 [Phenformin] (partner 250 µM)
# In short: as §1
# [3] = compound: O=S(=O)(c1ccccc1)N(CC(F)(F)F)c1ccc(C(O)(C(F)(F)F)C(F)(F)F)cc1 + Nc1nc2[nH]cc(CCc3ccc(C(=O)N[C@@H](CCC(=O)O)C(=O)O)cc3)c2c(=O)[nH]1 [Pemetrexed] (partner 0.2 µM)
# In short: as §1
Cell Line,relative viability ([1]; first compound 0.8 µM),relative viability ([1]; first compound 2.53 µM),relative viability ([1]; first compound 8 µM),relative viability (RO-3306 + Luminespib; first compound 0.01 µM),relative viability (RO-3306 + Luminespib; first compound 0.03162 µM),relative viability (RO-3306 + Luminespib; first compound 0.1 µM),relative viability (RO-3306 + Luminespib; first compound 0.3162 µM),relative viability (RO-3306 + Luminespib; first compound 1 µM),relative viability (RO-3306 + Phenformin; first compound 0.01 µM),relative viability (RO-3306 + Phenformin; first compound 0.03162 µM),relative viability (RO-3306 + Phenformin; first compound 0.1 µM),relative viability (RO-3306 + Phenformin; first compound 0.3162 µM),relative viability (RO-3306 + Phenformin; first compound 1 µM),relative viability ([2]; first compound 0.8 µM),relative viability ([2]; first compound 2.53 µM),relative viability ([2]; first compound 8 µM),relative viability ([3]; first compound 0.8 µM),relative viability ([3]; first compound 2.53 µM),relative viability ([3]; first compound 8 µM)
NCI-H441,0.669,0.517,0.62,0.248,0.317,0.279,0.313,0.315,0.689,0.474,0.783,0.864,0.788,1.16,0.905,0.813,0.25,0.262,0.285
HCC-366,1.16,0.872,0.729,–,–,–,–,–,0.644,0.547,0.65,0.613,0.63,0.693,0.568,0.48,0.16,0.182,0.174
NCI-H2085,0.98,0.718,0.769,0.377,0.499,0.517,0.437,0.46,0.688,0.604,0.655,0.683,0.654,0.805,0.695,0.741,0.751,0.8,0.869
SW 1573,0.863,0.619,0.487,0.205,0.218,0.198,0.302,0.217,0.405,–,0.363,0.341,0.351,0.47,0.37,0.401,0.904,0.76,0.877
H3255,0.63,0.597,0.603,0.899,0.938,0.763,0.837,0.866,0.392,0.326,0.315,0.32,0.332,0.382,0.373,0.393,0.602,0.526,0.502
NCI-H2023,0.41,0.279,0.286,0.681,0.723,0.643,0.534,0.396,0.459,0.38,0.398,0.403,0.356,0.472,0.369,0.311,0.274,0.268,0.231
HOP-62,0.904,0.878,0.665,1.02,0.926,0.976,0.925,0.894,0.694,0.405,0.777,0.714,0.659,0.646,0.533,0.427,0.238,0.271,0.243
LC-2-ad,0.876,0.889,0.827,1.01,0.907,0.966,1.09,1.02,0.538,0.476,0.492,0.614,0.562,0.626,0.584,0.633,0.274,0.286,0.244
NCI-H2347,0.699,0.445,0.302,1.03,0.43,0.825,0.253,0.575,0.347,0.374,0.384,0.485,0.384,0.462,0.38,0.342,0.47,0.445,0.395
NCI-H1651,0.742,0.793,0.703,1.21,0.873,0.857,1.03,0.802,0.363,0.254,0.341,0.338,0.251,0.358,0.292,0.268,0.726,0.61,0.521
COR-L23,0.85,0.793,0.734,0.648,0.591,0.778,0.868,0.562,0.475,0.391,0.455,0.409,0.435,0.452,0.451,0.427,0.2,0.193,0.208
ABC-1,0.539,0.426,0.549,0.548,0.719,0.527,0.658,0.898,0.238,0.222,0.268,0.27,0.232,0.238,0.246,0.335,–,–,–
NCI-H1755,0.712,0.657,0.691,0.435,0.3,0.275,0.269,0.484,0.65,0.62,0.63,0.622,0.544,0.638,0.614,0.569,0.417,0.422,0.436
NCI-H2170,0.653,0.663,0.685,0.485,0.803,0.419,0.669,0.639,0.425,0.422,0.396,0.383,0.435,0.379,0.348,0.344,0.256,0.274,0.28
NCI-H23,0.62,0.711,0.594,0.237,–,–,0.216,0.204,0.734,0.762,0.737,0.745,0.668,0.828,0.743,0.699,0.706,0.654,0.74
NCI-H1395,0.512,0.57,0.579,0.915,0.878,0.622,0.653,0.519,0.377,0.479,0.421,0.46,0.459,0.438,0.465,0.482,0.887,0.816,0.924
LOU-NH91,0.722,0.718,0.79,0.348,0.298,0.312,0.28,0.291,0.808,0.709,0.681,0.649,0.694,0.607,0.562,0.661,0.424,0.434,0.35
NCI-H647,0.592,0.498,0.681,0.234,0.121,0.122,0.174,0.322,0.682,0.304,0.449,0.582,0.392,0.502,0.552,0.455,0.0949,0.156,0.164
NCI-H522,0.615,0.754,0.903,1.04,1.12,1.13,1.14,1.22,0.599,0.615,0.699,0.666,0.733,0.721,0.736,0.727,1.03,1.11,0.877
HCC-78,0.342,0.399,0.469,–,–,–,–,–,0.705,0.586,0.642,0.723,0.696,0.631,0.612,0.581,1.01,0.915,0.967
201T,0.685,0.738,0.688,1.02,1.05,1.02,1.01,1.05,0.499,0.355,0.46,0.414,0.369,0.451,0.41,0.503,0.331,0.343,0.401
ChaGo-K-1,0.687,0.522,0.6,0.594,0.585,0.469,0.56,0.32,0.579,0.404,0.447,0.443,0.337,0.517,0.52,0.474,0.263,0.264,0.272
NCI-H1993,0.58,0.341,0.552,0.792,0.697,0.913,0.799,0.746,0.483,0.552,0.503,0.517,0.499,0.522,0.529,0.469,0.616,0.533,0.614
EMC-BAC-2,0.455,0.422,0.37,1.25,0.983,1.23,1.16,1.15,0.516,0.401,0.536,0.497,0.508,0.701,0.493,0.557,0.402,0.401,0.416
HCC-15,0.799,0.607,0.623,0.488,0.42,0.355,0.315,0.418,0.519,0.333,0.459,0.464,0.423,0.469,0.405,0.422,0.213,0.23,0.243
EKVX,0.746,0.646,0.691,1.02,0.689,0.841,0.959,0.905,0.245,0.196,0.218,0.217,0.22,0.226,0.199,0.228,0.388,0.362,0.292
NCI-H1623,0.469,0.389,0.484,0.574,0.451,0.617,0.471,0.5,0.61,0.597,0.579,0.58,0.568,0.6,0.559,0.57,–,–,–
NCI-H727,0.669,0.474,0.631,0.244,–,0.453,0.906,0.3,0.535,–,0.502,0.458,0.576,0.568,0.378,0.469,–,–,–
A549,–,–,–,–,–,–,–,–,0.225,0.802,–,0.124,1.12,0.17,0.159,0.186,–,–,–
NCI-H1648,0.248,0.254,0.185,–,–,–,–,–,–,–,–,–,–,–,–,–,0.718,0.574,0.535
